Legend:
[1] = system: Caudal Artery of the Rat (effect of serotonin); assay: Antagonistic Activity on the Effect of Serotonin on the Caudal Artery of the Rat (Test 1); conditions: serotonin 40 ng/ml; 5 minutes after adding the drug; rat caudal artery strips
Method: Caudal arteries from fasted male rats (210-235 g) are used in the test. Two helical strips having a length of 5-6 cm and a width of 2 mm are obtained from each artery and mounted vertically in a 100 ml organ bath containing an oxygenated Krebs-Henseleit solution. Submaximal contractions of the arterial strips are produced by adding single doses of serotonin (40 ng/ml) to the organ bath for 2 minutes with each time an interval of 10 minutes. The amplitude of the contraction is measured before and 5 minutes after adding the drug. After washing out, the agonist is added again three times in order to see whether the contraction is restored and normalized. […] In this connection the ED50 -values are the minimal concentrations of the concerned drugs which reduce the amplitude of the contraction to at least 50% of its normal value.

[2] = system: lesions in the glandular area of the stomach and distension of the stomach induced by compound 48/80 in rats; assay: Gastric lesion test: lesions induced by compound 48/80 (Test 2); type: in vivo, rat (male, Wistar inbred strain); conditions: oral, 2 hours before compound 48/80 (1 mg/kg i.v.); stomachs inspected 4 hours after
Method: (§1) The shock, followed by dead, can be avoided if the rats are pretreated with a classical H 1 antagonist.
(§2) Male rats of a Wistar inbred strain, weighing 220-250 g, are starved overnight, water being available ad libitum. The test compounds are administered orally as a solution or as a suspension in aqueous medium. A control rat and a "blank" rat receive the test compound. One hour later 5-[4-(diphenylmethyl)-1-piperazinylmethyl]-1-methyl-1H-benzimidazole-2-methanol is administered subcutaneously to all rats at the dose of 2.5 mg/kg. […] Five minutes after the injection the intensity of purple-blue coloration (cyanosis) of the extremities is scored as 0 (absent), +(moderate) or ++(intense). Four hours after the intravenous injection of compound 48/80 the rats are decapitated and the stomachs are removed. Subsequently the stomachs are inspected for distension and contents (blood, fluid, food) and thoroughly rinsed. The macroscopic lesions are scored from 0 to + ++, 0 corresponding to complete absence of visible lesions and the highest score corresponding to reddish rough patches covering more than half the glandular area.

[3] = system: cyanosis of ears and extremities induced by compound 48/80 in rats; assay: Cyanosis of ears and extremities induced by compound 48/80 (Test 2); type: in vivo, rat (male, Wistar inbred strain); conditions: Rattus norvegicus, po, 5 min; read-out: Cyanosis ED50 (dose at which cyanosis of ears and extremities is completely absent in 50% of the test rats)
Method: as §1, §2

Structure (SMILES) | Caudal artery ED50 (minimal concentration which reduces the amplitude of the serotonin-induced contraction to at least 50% of its normal value) [1] | G. lesion ED50 (dose at which distension of the stomach and lesions in the glandular area are completely absent in 50% of the test rats) [2] | ED50 [3]
O=C(c1ccc(F)cc1)C1CCN(CCN2C(=O)Nc3ccccc3C2c2ccccc2)CC1 (stereo not drawn) [drawing 34: R^6=C6H5, Alk=(CH2)2, Ar=4-FC6H4, 3-[2-[4-(4-fluorobenzoyl)-1-piperidinyl]ethyl]-3,4-dihydro-4-phenyl-2(1H)-quinazolinone] | 0.6 ng/mL | 0.08 mg/kg | 0.08 mg/kg
O=C(c1ccc(F)cc1)C1CCN(CCn2c(=S)[nH]c3ccccc3c2=O)CC1 [3-[2-[4-(4-fluorobenzoyl)-1-piperidinyl]ethyl]-2,3-dihydro-2-thioxo-4(1H)-quinazolinone] | 0.6 ng/mL | 0.08 mg/kg | 0.04 mg/kg
O=C(c1ccc(F)cc1)C1CCN(CCCn2c(=O)[nH]c3ccccc3c2=O)CC1 | 1.25 ng/mL | 2.5 mg/kg | –
Cn1c(=O)n(CCN2CCC(C(=O)c3ccc(F)cc3)CC2)c(=O)c2ccccc21 | 0.7 ng/mL | 1.25 mg/kg | 0.16 mg/kg
O=C1NC(CCN2CCC(C(=O)c3ccc(F)cc3)CC2)Nc2ccccc21 (stereo not drawn) [2-[2-[4-(4-fluorobenzoyl)-1-piperidinyl]ethyl]-2,3-dihydro-4(1H)-quinazolinone] | 0.7 ng/mL | 2.5 mg/kg | 1.25 mg/kg
O=C(c1ccc(F)cc1)C1CCN(CCCn2c(=S)[nH]c3ccccc3c2=O)CC1 [3-[3-[4-(4-fluorobenzoyl)-1-piperidinyl]propyl]-2,3-dihydro-2-thioxo-4(1H)-quinazolinone] | 2 ng/mL | 2.5 mg/kg | 0.63 mg/kg
COc1ccc2c(=O)n(CCN3CCC(C(=O)c4ccc(F)cc4)CC3)c(=O)[nH]c2c1 [3-[2-[4-(4-fluorobenzoyl)-1-piperidinyl]ethyl]-7-methoxy-2,4(1H,3H)-quinazolinedione] | 0.7 ng/mL | 0.31 mg/kg | 0.16 mg/kg
Cc1nc2ccccc2c(=O)n1CCN1CCC(C(=O)c2ccc(F)cc2)CC1 [3-[2-[4-(4-fluorobenzoyl)-1-piperidinyl]ethyl]-2-methyl-4(3H)-quinazolinone] | 0.6 ng/mL | 0.16 mg/kg | 0.16 mg/kg
O=C(c1ccc(F)cc1)C1CCN(CCN2CNc3ccccc3C2=O)CC1 [3-[2-[4-(4-fluorobenzoyl)-1-piperidinyl]ethyl]-2,3-dihydro-4(1H)-quinazolinone] | 5 ng/mL | ≥ 2.5 mg/kg | –
COc1ccc(C(=O)C2CCN(CCn3c(=O)[nH]c4ccccc4c3=O)CC2)cc1 | 2.5 ng/mL | – | –
O=C(c1ccc(F)cc1)C1CCN(CCn2cnc3ccccc3c2=O)CC1 [3-[2-[4-(4-fluorobenzoyl)-1-piperidinyl]ethyl]-4(3H)-quinazolinone] | 0.6 ng/mL | 0.31 mg/kg | 0.31 mg/kg
O=C(c1ccc(F)cc1)C1CCN(CCn2c(=O)[nH]c3cc(F)ccc3c2=O)CC1 [7-fluoro-3-[2-[4-(4-fluorobenzoyl)-1-piperidinyl]ethyl]-2,4(1H,3H)-quinazolinedione] | 0.7 ng/mL | 1.25 mg/kg | 0.16 mg/kg
O=c1[nH]c2ccccc2c(=O)n1CCN1CCC(C(O)c2ccc(F)cc2)CC1 (stereo not drawn) [3-[2-[4-[(4-fluorophenyl)hydroxymethyl]-1-piperidinyl]ethyl]-2,4(1H,3H)-quinazolinedione] | 20 ng/mL | 1.25 mg/kg | 1.25 mg/kg
Nc1cc(F)ccc1C(=O)C1CCN(CCn2c(=O)[nH]c3ccccc3c2=O)CC1 [3-[2-[4-(2-amino-4-fluorobenzoyl)-1-piperidinyl]ethyl]-2,4(1H,3H)-quinazolinedione] | 0.6 ng/mL | 1.25 mg/kg | 0.16 mg/kg
O=C(c1ccc(Cl)cc1)C1CCN(CCn2c(=O)[nH]c3ccccc3c2=O)CC1 | 2.5 ng/mL | – | –
Cc1ccc2[nH]c(=O)n(CCN3CCC(C(=O)c4ccc(F)cc4)CC3)c(=O)c2c1 | 1.3 ng/mL | 2.5 mg/kg | 0.63 mg/kg
O=C(O)/C=C/C(=O)O.O=C(c1ccc(F)cc1)C1CCN(CCCN2CNc3ccccc3C2=O)CC1 [3-[3-[4-(4-fluorobenzoyl)-1-piperidinyl]propyl]-2,3-dihydro-4-(1H)-quinazolinone (E)-2-butenedioate (1:1)] | 10 ng/mL | ≥ 2.5 mg/kg | –
O=C(c1ccc(F)cc1)C1CCN(CCn2c(=O)[nH]c3ccccc3c2=O)CC1 [3-[2-[4-(4-fluorobenzoyl)-1-piperidinyl]ethyl]-2,4-(1H,3H)-quinazolinedione] | 0.7 ng/mL | 0.16 mg/kg | 0.08 mg/kg
O=C(O)/C=C/C(=O)O.O=C(c1ccc(F)cc1)C1CCN(CCCn2cnc3ccccc3c2=O)CC1 [3-[3-[4-(4-fluorobenzoyl)-1-piperidinyl]propyl]-4(3H)-quinazolinone (E)-2-butenedioate (1:1)] | 5 ng/mL | 2.5 mg/kg | –
O=C(c1ccc(F)cc1)C1CCN(CCn2c(=O)[nH]c3cc(Cl)ccc3c2=O)CC1 | 2 ng/mL | 1.25 mg/kg | 1.25 mg/kg
O=c1[nH]c2ccccc2c(=O)n1CCN1CCC(C2(c3ccc(F)cc3)OCCO2)CC1 | 11 ng/mL | 0.31 mg/kg | 0.16 mg/kg
O=C(c1ccc(F)cc1)C1CCN(CCN2C(=O)Nc3ccc(Cl)cc3C2c2ccccc2)CC1 (stereo not drawn) [6-chloro-3-[2-[4-(4-fluorobenzoyl)-1-piperidinyl]ethyl]-3,4-dihydro-4-phenyl-2(1H)-quinazolinone] | – | 0.63 mg/kg | 0.63 mg/kg

— US4335127A, “Piperidinylalkyl quinazoline compounds, composition and method of use” (Janssen Pharmaceutica, N.V., priority 1979, dated 1982)
